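At the GI50, growth is halved. TGI marks complete inhibition of growth.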
What was measured:
Assay in all cases: NCI tumour cell line growth inhibition, 384-well format
[1] = tested on: PC-3 prostate
[2] = tested on: K-562 leukemia
[3] = tested on: UO-31 renal
[4] = tested on: M14 melanoma
[5] = tested on: RXF 393 renal
[6] = tested on: SF-295 CNS
[7] = tested on: SN12C renal
[8] = tested on: COLO 205 colon
[9] = tested on: HT29 colon
[10] = tested on: KM12 colon
[11] = tested on: OVCAR-3 ovarian
[12] = tested on: ACHN renal
[13] = tested on: HOP-62 NSCLC
[14] = tested on: SK-MEL-28 melanoma
[15] = tested on: RPMI-8226 leukemia
[16] = tested on: DU-145 prostate
[17] = tested on: A549 NSCLC
[18] = tested on: SF-539 CNS
[19] = tested on: HCT-15 colon
[20] = tested on: BT-549 breast
[21] = tested on: LOX IMVI melanoma
[22] = tested on: 786-0 renal
[23] = tested on: TK-10 renal
[24] = tested on: CCRF-CEM leukemia
[25] = tested on: HCT-116 colon
[26] = tested on: NCI-H460 NSCLC
[27] = tested on: SNB-19 CNS
[28] = tested on: MDA-MB-435 melanoma
[29] = tested on: HOP-92 NSCLC
[30] = tested on: OVCAR-5 ovarian
[31] = tested on: CAKI-1 renal
[32] = tested on: OVCAR-8 ovarian
[33] = tested on: HCC-2998 colon
[34] = tested on: UACC-257 melanoma
[35] = tested on: T-47D breast
[36] = tested on: SK-MEL-5 melanoma
[37] = tested on: NCI-H322M lung
[38] = tested on: SW-620 colon
[39] = tested on: NCI/ADR-RES ovarian
[40] = tested on: U251 glioblastoma
[41] = tested on: MOLT-4 leukemia
[42] = tested on: NCI-H226 lung
[43] = tested on: A498 renal
[44] = tested on: HL-60(TB) leukemia
[45] = tested on: UACC-62 melanoma
[46] = tested on: SF-268 CNS
[47] = tested on: IGROV1 ovarian

Compound: CN(CCO)CC[C@H](CSc1ccccc1)Nc1ccc(S(=O)(=O)NC(=O)c2ccc(N3CCC([C@@H](O)c4ccccc4-c4ccc(Cl)cc4)CC3)cc2)cc1S(=O)(=O)C(F)(F)F
- GI50 [1]: 2.43 µM
- TGI [1]: 5.71 µM
- GI50 [2]: 3.04 µM
- TGI [2]: 8.08 µM
- GI50 [3]: > 100 µM
- TGI [3]: > 100 µM
- GI50 [4]: 2.82 µM
- TGI [4]: 7.47 µM
- GI50 [5]: < 0.01 µM
- TGI [5]: 0.53 µM
- GI50 [6]: 2.16 µM
- TGI [6]: 5.23 µM
- GI50 [7]: 4.04 µM
- TGI [7]: 13.9 µM
- GI50 [8]: 0.807 µM
- TGI [8]: 2.13 µM
- GI50 [9]: 4.35 µM
- TGI [9]: 15.5 µM
- GI50 [10]: 2.69 µM
- TGI [10]: 6.67 µM
- GI50 [11]: 3.54 µM
- TGI [11]: 12.2 µM
- GI50 [12]: 22.6 µM
- TGI [12]: > 100 µM
- GI50 [13]: 5.33 µM
- TGI [13]: 16.7 µM
- GI50 [14]: 2.31 µM
- TGI [14]: 4.96 µM
- GI50 [15]: < 0.01 µM
- TGI [15]: < 0.01 µM
- GI50 [16]: 18.6 µM
- TGI [16]: 55.9 µM
- GI50 [17]: > 100 µM
- TGI [17]: > 100 µM
- GI50 [18]: 4.11 µM
- TGI [18]: 14.7 µM
- GI50 [19]: 64.9 µM
- TGI [19]: > 100 µM
- GI50 [20]: 3.45 µM
- TGI [20]: 10.3 µM
- GI50 [21]: 1.96 µM
- TGI [21]: 3.62 µM
- GI50 [22]: 2.51 µM
- TGI [22]: 6.68 µM
- GI50 [23]: 3.78 µM
- TGI [23]: 15.9 µM
- GI50 [24]: < 0.01 µM
- TGI [24]: 0.0137 µM
- GI50 [25]: 2.97 µM
- TGI [25]: 9.36 µM
- GI50 [26]: 13.7 µM
- TGI [26]: 27.9 µM
- GI50 [27]: 4.85 µM
- TGI [27]: 17.2 µM
- GI50 [28]: 3.42 µM
- TGI [28]: 9.42 µM
- GI50 [29]: < 0.01 µM
- TGI [29]: 0.301 µM
- GI50 [30]: 5 µM
- TGI [30]: 21.3 µM
- GI50 [31]: 5.42 µM
- TGI [31]: 15.9 µM
- GI50 [32]: 11.9 µM
- TGI [32]: 24.4 µM
- GI50 [33]: < 0.01 µM
- TGI [33]: 0.199 µM
- GI50 [34]: 2.29 µM
- TGI [34]: 13.6 µM
- GI50 [35]: 3.88 µM
- TGI [35]: 14.6 µM
- GI50 [36]: 1.81 µM
- TGI [36]: 6.32 µM
- GI50 [37]: 2.72 µM
- TGI [37]: 9.6 µM
- GI50 [38]: 4.48 µM
- TGI [38]: 16.2 µM
- GI50 [39]: > 100 µM
- TGI [39]: > 100 µM
- GI50 [40]: 2.62 µM
- TGI [40]: 6.48 µM
- GI50 [41]: < 0.01 µM
- TGI [41]: < 0.01 µM
- GI50 [42]: 1.76 µM
- TGI [42]: 6.04 µM
- GI50 [43]: 1.73 µM
- TGI [43]: 6.09 µM
- GI50 [44]: < 0.01 µM
- TGI [44]: < 0.01 µM
- GI50 [45]: 2.32 µM
- TGI [45]: 5.75 µM
- GI50 [46]: 4.16 µM
- TGI [46]: 13.9 µM
- GI50 [47]: 1.6 µM
- TGI [47]: 3.25 µM

Reference: PubChem BioAssay (NCI)
